In patent US9827326B2, “Polymer-sunitinib conjugates” (Nektar Therapeutics, priority 2010, dated 2017) one finds half-life data, which are given here for one compound.

The data set in a line: In vitro release of conjugates in phosphate buffer (Method E). It is filed as physicochemical. How it is done:
In vitro release for conjugates in buffer: In separate containers Compound 2a (˜0.1-0.5 mg/mL), Compound 3a (˜0.5-5 mg/mL) and Compound 4a (˜0.2-1 mg/mL) were dissolved in 100 mM phosphate buffer pH 7.5 (or other pH values as indicated). The conjugates were filtered through a 0.2 micron filter into a HPLC vial. The HPLC sample vials were incubated at 37° C. and injected at various intervals on a HPLC system with C18 silica column applying an acetonitrile gradient with 0.1% TFA; retention times observed were sunitinib ˜3.5 minutes and conjugates either ˜2.2 minutes for Compound 2a or ˜10.8 minutes for Compounds 3a or 4a. Release data for the t1/2 values were obtained from the slope of the linear fit to a plot of ln(A(conjugate)/A0(conjugate)) vs. time, according to the first order rate law.
The half-lives observed for several sunitinib conjugates of the invention were determined in buffer and plasma according to the descriptions in “Method E” provided in the Experimental.

SMILES strings stand for the structures. Where two headings read alike, the source gives them in different places.

With `CCN(CC)CCN(C(=O)OCC(O)CO)C(=O)c1c(C)[nH]c(/C=C2\C(=O)Nc3ccc(F)cc32)c1C` (centres unmarked) [Compound 1e, (Z)-2,3-dihydroxypropyl 2-(diethylamino)ethyl(5-((5-fluoro-2-oxoindolin-3-ylidene)methyl)-2,4-dimethyl-1H-pyrrole-3-carbonyl)carbamate], the half-life (commonly the time in which the quantity being followed falls by half) (100 mM phosphate buffer pH 7.5, 37° C., read-out: Release half-life, Phosphate pH 7.5) is roughly 3 min and the half-life (phosphate buffer pH 6.8, 37° C., read-out: Release half-life, Phosphate pH 6.8) is roughly 10 min.
